Laboratory results taken from publication PMC6934184, “Selective DNA-PKcs inhibition extends the therapeutic index of localized radiotherapy and chemotherapy” (The Journal of Clinical Investigation, 2019).

Tested on: lung
Experiment: radiation-induced lung fibrosis, Masson's trichrome, modified Ashcroft score
Format: in vivo, C57BL/6 mice
Conditions: 30 mg/kg oral 30 min before and 5 h after each of 4 × 5 Gy; 24 weeks
Protocol: Whole-thorax irradiation (5 Gy) was administered to female C57BL/6 mice (6–8 weeks old) on days 1, 4, 7, and 10 with vehicle or NU5455 treatment. Whole lung sections were stained with Masson’s trichrome to visualize collagen deposition and scored using the modified Ashcroft scale proposed by Hübner et al. ([55]). Further details are provided in Supplemental Methods. […]
combined with 10 Gy thorax irradiation ( n = 6 - 7/group). For whole-thorax irradiation, anaesthetized mice were placed in the supine position in a customized rig. The whole thorax was exposed to X-ray radiation generated by the Gulmay Medical RS320 irradiation system (2.034 Gy/minute). The rest of the body was protected by lead shields. […]
Tumor growth in the remaining mice was monitored by bioluminescent imaging on days 0, 4, 8 and 15 post-treatment. […] Data were analyzed using LivingImage software (PerkinElmer). […]
Tissues were fixed in 4% paraformaldehyde (PFA) and paraffin -embedded. […] One tissue section from each of 3 mice per group was examined, and the whole section (excluding necrotic areas) analyzed using ImageScope analysis software (Aperio Technologies). γH2AX and 53BP1 foci were manually counted in 200 nuclei from each tumor sample. The percentage of γH2AX and 53BP1 positive nuclei in lung epithelial cells was quantified manually in normal lung samples across 5 randomly-chosen fields of view per […]

SMILES: CN(C(=O)CN1CCOCC1)c1ccc2sc3c(-c4cccc5c(=O)cc(N6CC7CCC(C6)O7)oc45)cccc3c2c1 [NU5455]
- radiation-induced lung fibrosis: did not exacerbate radiation-induced lung fibrosis
